Measurements taken from US11065220B2, “Anti-pathogenic therapeutic compositions” (Wintermute Biomedical, Inc., priority 2017, dated 2021).

Columns and labels:
MRSA [1] = test: In-vitro resistance study, repeated sub-inhibitory exposures of MRSA; format: cell-based, Staphylococcus aureus; settings: sub-inhibitory concentrations
Procedure: A number of standard in-vitro resistance studies were conducted to predict the onset and mechanism of resistance for an anti-pathogenic compound such as WT13-13. The standard test comprises exposing bacteria to sub-inhibitory concentrations of an antibiotic over a number of exposures and monitoring the bacterial growth. As the bacteria develop resistance to the drug, the growth rate will rise. Tests were performed by treating MRSA with sub-inhibitory concentrations of both WT13-13 and mupirocin (separately) in order to study the behavior of WT13-13 and compare with that of mupirocin. The horizontal dotted lines represent the ideal, non-resistant behavior. That is, if an antibiotic were effective and the bacteria not developing resistance to it, its growth curve would be flat and follow the dotted line. However, all antibiotics to date experience bacterial resistance and trend upwards of the dotted line, towards the MRSA-only control line (if an antibiotic reaches the control line, it is completely ineffective and the bacteria is resistant to the antibiotic). […] The shading 1201 highlights this behavior. […] The shading 1203 highlights this behavior. […] Such “anti-resistance” has not been reported in an antibiotic before.

MRSA [2] = test: Iodonitrotetrazolium chloride assay of MRSA growth, various anthraquinones with L-Arg and UCA; format: cell-based, Staphylococcus aureus; settings: FIG. 20
Procedure: Although the WT13-13 example compound described herein uses cassic acid (rhein) as the anthraquinones, other anthraquinones may be used. This is illustrated in FIG. 20, for example. In FIG. 20, antibiotic effects of other anthraquinones were tested against MRSA. As shown, identical ratios of L-Arg and UCA were combined with various anthraquinones, including cassic acid (Rhein), aloe-emodin (AloeE), and chrysophanol (Chyrs.). Formulations were tested for MRSA growth using an iodonitrotetrazolium chloride assay. Each compound was MRSA was assayed in media control and subtracted from the values taken from the wells containing MRSA to control for colorimetric alterations. Each MRSA well contained 100,000 CFUs in 100 microliters.
As shown in FIG. 20 discussed above, in addition to cassic acid, other anthraquinones were tested for activity using an iodonitrotetrazolium chloride assay. Each anthraquinone was assayed for activity against one or more pathogen. In FIG. 20 activity was tested against MRSA growth.

## C/C(=C\C(=O)OCCCCCCCCC(=O)O)C[C@@H]1OC[C@H](C[C@@H]2O[C@H]2[C@@H](C)[C@H](C)O)[C@@H](O)[C@H]1O [mupirocin]
MRSA [1]
  development of resistance over multiple exposures (growth trend): trends upwards towards the control line

## O=C(O)C(=O)O [oxcalic acid]
MRSA [2]
  inhibition of MRSA growth: Inhibition of growth

## O=C1c2cccc(O)c2C(=O)c2c(O)cccc21 [dantron]
MRSA [2]
  inhibition of MRSA growth: Inhibition of growth
